Assay: mn = molality of the nth substance listed, in mol/kg
Conditions: for electrical conductivity / mass density: 100 kPa, Liquid; for electrical conductivity: Direct current cell with electrodes; for mass density: Vibrating tube method; for surface tension liquid-gas: Ring tensiometer

CCCCCCCCCCCC[n+]1cscc1C.[Br-] [N-dodecyl-4-methylthiazolium bromide] + O
Conditions	electrical conductivity [S/m]	mass density [kg/m3]	surface tension liquid-gas [mN/m]
293.15 K, m1 = 0.0015	0.0135	998.25	–
293.15 K, m1 = 0.00206	0.0179	998.29	–
293.15 K, m1 = 0.0025	0.0221	998.31	–
293.15 K, m1 = 0.00402	0.0346	998.4	–
293.15 K, m1 = 0.005	0.0428	998.45	–
293.15 K, m1 = 0.00561	–	998.48	–
293.15 K, m1 = 0.00708	0.0591	998.56	–
293.15 K, m1 = 0.00803	–	998.6	–
293.15 K, m1 = 0.00906	0.0738	998.66	–
293.15 K, m1 = 0.01216	0.0813	998.81	–
293.15 K, m1 = 0.01507	0.0893	998.96	–
293.15 K, m1 = 0.01759	–	999.07	–
293.15 K, m1 = 0.02033	0.106	999.21	–
293.15 K, m1 = 0.02365	–	999.38	–
298.15 K, m1 = 0.0015	0.015	997.07	–
298.15 K, m1 = 0.00206	0.02	997.1	–
298.15 K, m1 = 0.0025	0.0246	997.12	–
298.15 K, m1 = 0.00402	0.0387	997.2	–
298.15 K, m1 = 0.005	0.0479	997.25	–
298.15 K, m1 = 0.00561	–	997.29	–
298.15 K, m1 = 0.00708	0.0662	997.36	–
298.15 K, m1 = 0.00803	–	997.42	–
298.15 K, m1 = 0.00906	0.0822	997.47	–
298.15 K, m1 = 0.01216	0.0921	997.62	–
298.15 K, m1 = 0.01507	0.101	997.75	–
298.15 K, m1 = 0.01759	–	997.86	–
298.15 K, m1 = 0.02033	0.12	998	–
298.15 K, m1 = 0.02365	–	998.16	–
303.15 K, m1 = 0.0015	0.0166	995.66	47.78
303.15 K, m1 = 0.00206	0.0222	995.68	43.39
303.15 K, m1 = 0.0025	0.0272	995.7	41.79
303.15 K, m1 = 0.00402	0.0428	995.77	39.49
303.15 K, m1 = 0.005	0.0529	995.82	35.96
303.15 K, m1 = 0.00561	–	995.86	–
303.15 K, m1 = 0.00708	0.0733	995.93	30.49
303.15 K, m1 = 0.00803	–	995.98	–
303.15 K, m1 = 0.00906	0.0917	996.03	30.89
303.15 K, m1 = 0.01216	0.103	996.17	31.36
303.15 K, m1 = 0.01507	0.114	996.3	30.86
303.15 K, m1 = 0.01759	–	996.4	–
303.15 K, m1 = 0.02033	0.137	996.53	30.91
303.15 K, m1 = 0.02365	–	996.65	–
308.15 K, m1 = 0.0015	0.0184	994.04	–
308.15 K, m1 = 0.00206	0.0244	994.06	–
308.15 K, m1 = 0.0025	0.03	994.08	–
308.15 K, m1 = 0.00402	0.047	994.13	–
308.15 K, m1 = 0.005	0.0581	994.18	–
308.15 K, m1 = 0.00561	–	994.21	–
308.15 K, m1 = 0.00708	0.0803	994.28	–
308.15 K, m1 = 0.00803	–	994.33	–
308.15 K, m1 = 0.00906	0.1	994.37	–
308.15 K, m1 = 0.01216	0.114	994.49	–
308.15 K, m1 = 0.01507	0.127	994.61	–
308.15 K, m1 = 0.01759	–	994.69	–
308.15 K, m1 = 0.02033	0.15	994.82	–
308.15 K, m1 = 0.02365	–	994.89	–
313.15 K, m1 = 0.0015	0.02	992.22	–
313.15 K, m1 = 0.00206	0.0267	992.23	–
313.15 K, m1 = 0.0025	0.0329	992.24	–
313.15 K, m1 = 0.00402	0.0515	992.28	–
313.15 K, m1 = 0.005	0.0634	992.31	–
313.15 K, m1 = 0.00561	–	992.34	–
313.15 K, m1 = 0.00708	0.0877	992.39	–
313.15 K, m1 = 0.00803	–	992.43	–
313.15 K, m1 = 0.00906	0.11	992.47	–
313.15 K, m1 = 0.01216	0.125	992.61	–
313.15 K, m1 = 0.01507	0.138	992.72	–
313.15 K, m1 = 0.01759	–	992.81	–
313.15 K, m1 = 0.02033	0.162	992.9	–
313.15 K, m1 = 0.02365	–	993	–
